Like-named read-outs stand apart in the source and are kept apart here. Some results are limits rather than exact numbers.

Assay [1] addresses PI3K p110α/p85α (human) (Homo sapiens (Human), UniProt P42336). Description: PI3K p110α/p85α (human), non-radioactive assay (HTRF). Type of assay: biochemical. The settings on record: read-out: IC50 (PI3Kalpha). For orientation: TR-FRET usually uses a lanthanide donor and a delayed reading to cut background.
Assay [2] deals with purified human recombinant ATM (ataxia telangiectasia mutated), full length (Homo sapiens (Human), UniProt Q13315). The assay can be described thus: ATM kinase assay - determination of ATM inhibition (IC50 ATM), TR-FRET. Type of assay: biochemical. The gist of the method:
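Full-length enzyme, expressed in a mammalian cell line, pre-incubated 15 min with inhibitor in 25 mM HEPES pH 8.0, 10 mM Mg(CH3COO)2, 1 mM MnCl2, 0,1% BSA, 0,01% Brij 35, 5 mM DTT. Full-length cmyc-p53 (Sf21-expressed) and ATP then added, 30-35 min at 22° C. EDTA stop; p53 S15 phosphorylation read by TR-FRET antibodies.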

Assay [3] has as its target PI3K (p120γ) (human) (Homo sapiens (Human), UniProt P48736). The assay can be described thus: PI3K (p120γ) (human), non-radioactive assay (HTRF). The format is biochemical. The settings on record: read-out: IC50 (PI3Kgamma). The gist of the method:
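Enzyme was run with 10 μM phosphatidylinositol 4,5-bisphosphate, starting the reaction with MgATP at an unspecified level, for 30 min at room temperature. The stop used EDTA plus biotinylated PIP3, and detection used Eu-anti-GST, GST-GRP1 PH domain and streptavidin-APC. Signal was taken as HTRF = 10000×(Em665nm/Em620nm).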

The target in assay [4] is PI3K p110β/p85α (human) (Homo sapiens (Human), UniProt P42338). Description: PI3K p110β/p85α (human), non-radioactive assay (HTRF). Type of assay: biochemical. The settings on record: read-out: IC50 (PI3Kbeta). The gist of the method:
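Human p110β/p85α incubated with 10 μM phosphatidylinositol 4,5-bisphosphate and MgATP for 30 min at room temperature, stopped with EDTA plus biotinylated PIP3. HTRF detection used a Eu-anti-GST antibody, GST-GRP1 PH domain and streptavidin-APC, with signal taken as 10000×(Em665nm/Em620nm).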

In assay [5] the test system is phosphorylation of CHK2 (phospho-Thr68) in HCT116 cells. Description: Cellular pCHK2 assay: bleomycin-induced phosphorylation of CHK2 (phospho-Thr68), immunofluorescence high-content analysis. Type of assay: cell-based, human. To be noted: Homo sapiens, HCT-116, 4 h, read-out: IC50 (pCHK2). The gist of the method: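 HCT116 cells in DMEM with 10% FCS, incubated overnight at 37° C, then given compounds (1 nM to 30 μM, 0.5% DMSO) together with 10 μM bleomycin. Phospho-Thr68 CHK2 immunostained and imaged by high-content imager; nuclei with pCHK2 above background counted, cell count from propidium iodide DNA stain.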

For assay [6], the target named is PI3K p110δ/p85α (human) (Homo sapiens (Human), UniProt O00329). The assay can be described thus: PI3K p110δ/p85α (human), non-radioactive assay (HTRF). To be noted: read-out: IC50 (PI3Kdelta). The format is biochemical.
Assay [7] concerns the target mTOR (human) (Homo sapiens (Human), UniProt P42345). Description: mTOR (human) kinase assay, [γ-33P-ATP] filter assay. Type of assay: biochemical. A digest of the protocol:
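Radiometric filter assay: enzyme in 50 mM HEPES pH 7.5, 1 mM EGTA, 0.01% Tween 20, 3 mM MnCl2, 2 mg/ml substrate with [γ-33P-ATP], started with MgATP. Incubated 40 min at room temperature, stopped with 3% phosphoric acid; incorporation measured on P30 filtermat by scintillation counting.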

Sequence of PI3K p110α/p85α (human) (P42336 whole entry): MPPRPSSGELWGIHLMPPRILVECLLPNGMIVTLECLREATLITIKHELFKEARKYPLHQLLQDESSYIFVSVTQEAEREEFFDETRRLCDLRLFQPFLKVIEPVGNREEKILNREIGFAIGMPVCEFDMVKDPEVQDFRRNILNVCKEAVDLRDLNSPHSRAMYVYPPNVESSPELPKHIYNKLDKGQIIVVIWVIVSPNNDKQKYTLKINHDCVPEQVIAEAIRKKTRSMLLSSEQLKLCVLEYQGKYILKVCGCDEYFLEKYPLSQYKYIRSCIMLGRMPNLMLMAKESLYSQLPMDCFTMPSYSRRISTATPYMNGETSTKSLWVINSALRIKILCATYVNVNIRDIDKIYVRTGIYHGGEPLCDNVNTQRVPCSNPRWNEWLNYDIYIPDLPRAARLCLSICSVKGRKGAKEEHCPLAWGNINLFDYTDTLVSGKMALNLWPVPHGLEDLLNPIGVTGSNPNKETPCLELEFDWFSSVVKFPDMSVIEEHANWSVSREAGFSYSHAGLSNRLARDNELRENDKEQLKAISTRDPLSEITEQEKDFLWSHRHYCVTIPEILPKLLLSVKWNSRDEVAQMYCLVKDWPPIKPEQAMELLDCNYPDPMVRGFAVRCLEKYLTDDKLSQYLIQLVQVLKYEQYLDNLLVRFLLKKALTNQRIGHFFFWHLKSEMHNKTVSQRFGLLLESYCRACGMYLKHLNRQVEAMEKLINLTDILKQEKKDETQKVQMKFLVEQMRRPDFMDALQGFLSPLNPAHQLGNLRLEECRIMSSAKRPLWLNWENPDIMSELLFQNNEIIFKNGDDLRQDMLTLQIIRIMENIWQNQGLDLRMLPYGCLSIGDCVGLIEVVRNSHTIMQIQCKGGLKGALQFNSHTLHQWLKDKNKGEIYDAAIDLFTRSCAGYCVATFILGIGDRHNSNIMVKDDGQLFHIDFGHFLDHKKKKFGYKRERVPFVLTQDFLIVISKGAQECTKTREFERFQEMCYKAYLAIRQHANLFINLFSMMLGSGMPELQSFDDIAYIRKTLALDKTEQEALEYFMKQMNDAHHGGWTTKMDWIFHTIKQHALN
Sequence of PI3K p110α/p85α (human) (P27986 whole entry partner): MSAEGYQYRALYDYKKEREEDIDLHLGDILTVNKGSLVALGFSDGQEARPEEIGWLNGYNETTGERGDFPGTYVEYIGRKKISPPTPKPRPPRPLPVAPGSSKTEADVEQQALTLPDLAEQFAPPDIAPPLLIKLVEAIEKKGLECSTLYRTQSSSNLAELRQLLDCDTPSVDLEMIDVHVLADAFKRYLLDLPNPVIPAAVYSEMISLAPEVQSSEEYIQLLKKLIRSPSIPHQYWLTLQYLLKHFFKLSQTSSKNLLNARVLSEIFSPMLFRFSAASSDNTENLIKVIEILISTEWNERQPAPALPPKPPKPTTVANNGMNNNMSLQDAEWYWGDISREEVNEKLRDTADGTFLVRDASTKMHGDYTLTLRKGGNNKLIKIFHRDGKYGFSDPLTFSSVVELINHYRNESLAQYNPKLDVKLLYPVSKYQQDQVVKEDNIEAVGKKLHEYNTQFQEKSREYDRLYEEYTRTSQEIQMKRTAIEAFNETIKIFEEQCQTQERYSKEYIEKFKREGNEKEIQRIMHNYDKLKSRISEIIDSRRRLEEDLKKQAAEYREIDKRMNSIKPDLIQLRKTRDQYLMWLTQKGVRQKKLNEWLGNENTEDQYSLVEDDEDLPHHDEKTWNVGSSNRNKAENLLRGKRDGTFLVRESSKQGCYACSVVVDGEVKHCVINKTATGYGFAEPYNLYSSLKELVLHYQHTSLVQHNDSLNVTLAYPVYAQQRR
Sequence of purified human recombinant ATM (ataxia telangiectasia mutated), full length (Q13315 whole entry, change not shown): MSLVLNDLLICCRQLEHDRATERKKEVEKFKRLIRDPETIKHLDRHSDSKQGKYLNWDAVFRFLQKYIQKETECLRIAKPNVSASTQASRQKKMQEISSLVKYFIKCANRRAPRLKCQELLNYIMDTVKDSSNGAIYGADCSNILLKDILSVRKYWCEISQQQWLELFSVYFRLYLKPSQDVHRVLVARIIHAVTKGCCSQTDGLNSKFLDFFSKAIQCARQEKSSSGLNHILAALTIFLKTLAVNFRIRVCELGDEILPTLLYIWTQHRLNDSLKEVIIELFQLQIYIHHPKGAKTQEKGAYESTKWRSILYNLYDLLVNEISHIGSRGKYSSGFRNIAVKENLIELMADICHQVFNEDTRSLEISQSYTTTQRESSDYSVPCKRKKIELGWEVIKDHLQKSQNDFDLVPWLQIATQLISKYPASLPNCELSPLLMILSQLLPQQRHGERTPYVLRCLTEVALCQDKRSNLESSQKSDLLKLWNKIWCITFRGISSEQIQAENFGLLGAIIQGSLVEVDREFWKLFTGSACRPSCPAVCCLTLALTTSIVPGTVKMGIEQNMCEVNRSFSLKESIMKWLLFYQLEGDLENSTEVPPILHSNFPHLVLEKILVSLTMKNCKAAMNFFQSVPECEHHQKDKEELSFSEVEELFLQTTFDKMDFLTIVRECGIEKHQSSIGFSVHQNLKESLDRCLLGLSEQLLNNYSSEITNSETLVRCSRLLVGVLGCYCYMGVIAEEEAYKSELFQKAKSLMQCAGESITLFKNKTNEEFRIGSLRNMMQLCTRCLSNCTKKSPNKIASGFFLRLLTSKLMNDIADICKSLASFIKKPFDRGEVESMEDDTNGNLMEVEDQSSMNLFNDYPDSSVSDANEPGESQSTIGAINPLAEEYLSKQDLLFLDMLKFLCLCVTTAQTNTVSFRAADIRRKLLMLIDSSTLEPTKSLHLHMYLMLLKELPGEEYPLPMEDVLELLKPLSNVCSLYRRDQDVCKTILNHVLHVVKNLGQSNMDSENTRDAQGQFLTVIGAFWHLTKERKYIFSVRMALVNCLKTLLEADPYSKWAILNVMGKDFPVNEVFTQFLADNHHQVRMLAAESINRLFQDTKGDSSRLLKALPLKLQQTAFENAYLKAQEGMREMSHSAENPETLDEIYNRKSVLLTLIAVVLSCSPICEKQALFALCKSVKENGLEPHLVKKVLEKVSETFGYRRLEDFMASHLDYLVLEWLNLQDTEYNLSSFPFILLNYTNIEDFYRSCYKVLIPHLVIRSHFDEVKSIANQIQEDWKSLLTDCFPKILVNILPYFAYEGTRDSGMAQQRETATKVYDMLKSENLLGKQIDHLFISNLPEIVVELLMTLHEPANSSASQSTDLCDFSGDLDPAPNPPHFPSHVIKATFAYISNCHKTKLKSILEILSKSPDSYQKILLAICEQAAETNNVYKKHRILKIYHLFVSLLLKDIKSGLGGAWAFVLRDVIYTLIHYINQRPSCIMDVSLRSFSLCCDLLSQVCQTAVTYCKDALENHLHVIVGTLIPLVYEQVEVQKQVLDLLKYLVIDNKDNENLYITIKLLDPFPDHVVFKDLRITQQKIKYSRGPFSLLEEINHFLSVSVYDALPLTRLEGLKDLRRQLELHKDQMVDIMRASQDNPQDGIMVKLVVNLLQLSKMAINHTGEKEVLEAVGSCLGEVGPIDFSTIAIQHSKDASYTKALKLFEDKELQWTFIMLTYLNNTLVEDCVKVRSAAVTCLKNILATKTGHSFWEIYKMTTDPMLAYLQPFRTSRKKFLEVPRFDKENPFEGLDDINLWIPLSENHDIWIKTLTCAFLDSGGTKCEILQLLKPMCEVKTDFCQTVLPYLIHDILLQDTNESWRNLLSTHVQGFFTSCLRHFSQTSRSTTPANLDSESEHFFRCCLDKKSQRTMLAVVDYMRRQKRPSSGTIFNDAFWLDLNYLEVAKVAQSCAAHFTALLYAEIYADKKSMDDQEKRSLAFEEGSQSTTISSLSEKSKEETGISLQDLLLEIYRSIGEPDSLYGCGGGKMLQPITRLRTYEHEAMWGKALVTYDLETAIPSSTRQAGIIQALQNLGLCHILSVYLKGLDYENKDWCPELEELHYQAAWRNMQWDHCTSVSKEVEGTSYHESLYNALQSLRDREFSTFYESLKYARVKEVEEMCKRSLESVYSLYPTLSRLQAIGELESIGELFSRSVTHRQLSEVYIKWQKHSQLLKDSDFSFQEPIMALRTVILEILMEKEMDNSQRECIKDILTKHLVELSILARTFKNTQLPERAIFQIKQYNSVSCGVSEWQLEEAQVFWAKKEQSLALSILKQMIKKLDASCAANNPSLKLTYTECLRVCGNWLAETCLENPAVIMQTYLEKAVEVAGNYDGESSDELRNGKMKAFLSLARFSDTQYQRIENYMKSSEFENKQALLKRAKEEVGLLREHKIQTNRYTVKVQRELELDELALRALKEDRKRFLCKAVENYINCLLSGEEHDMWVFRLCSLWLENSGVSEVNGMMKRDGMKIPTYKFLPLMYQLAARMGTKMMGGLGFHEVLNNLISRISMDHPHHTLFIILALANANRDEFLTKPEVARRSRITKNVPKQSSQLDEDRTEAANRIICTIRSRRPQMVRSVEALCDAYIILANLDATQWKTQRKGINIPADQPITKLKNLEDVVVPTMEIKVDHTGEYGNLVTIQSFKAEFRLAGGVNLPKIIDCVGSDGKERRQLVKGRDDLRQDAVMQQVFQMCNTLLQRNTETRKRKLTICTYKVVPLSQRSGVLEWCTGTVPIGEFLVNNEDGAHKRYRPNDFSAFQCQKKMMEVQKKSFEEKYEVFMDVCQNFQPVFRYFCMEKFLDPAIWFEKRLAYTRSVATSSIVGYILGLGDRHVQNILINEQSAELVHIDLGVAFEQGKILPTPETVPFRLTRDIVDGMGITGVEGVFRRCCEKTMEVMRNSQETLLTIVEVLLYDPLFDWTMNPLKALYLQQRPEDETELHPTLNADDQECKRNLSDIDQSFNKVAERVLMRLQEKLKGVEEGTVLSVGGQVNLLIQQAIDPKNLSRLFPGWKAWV

In the case of `COc1cc2ncc3c(c2cc1-c1cnn(C)c1)n(-c1cn(C)cn1)c(=O)n3C` [compound 59, 7-Methoxy-3-methyl-1-(1-methyl-1H-imidazol-4-yl)-8-(1-methyl-1H-pyrazol-4-yl)-1,3-dihydroimidazo[4,5-c] quinolin-2-one], the IC50 in assay [1] is over 30 µM; in assay [2] it was under 0.01 µM; in assay [2] (10 μM ATP, substrate p53), under 0.01 µM; in assay [3], over 30 µM; in assay [4], over 30 µM; in assay [5], 1 to 2 µM. In addition, the IC50 in assay [6] and in assay [7] was over 30 µM in each case.

Consider `COc1cc2ncc3c(c2cc1-c1cnn(C)c1)n(-c1ccncc1Cl)c(=O)n3C` [compound 60, 1-(3-Chloropyridin-4-yl)-7-methoxy-3-methyl-8-(1-methyl-1H-pyrazol-4-yl)-1,3-dihydroimidazo[4,5-c] quinolin-2-one], for which the IC50 is over 30 µM in assay [1]; under 0.01 µM in assay [2]; under 0.01 µM in assay [2] (10 μM ATP, substrate p53); over 30 µM in assay [3]; over 30 µM in assay [4]; 1 to 2 µM in assay [5]. Also, the IC50 in assay [6] and in assay [7] was over 30 µM throughout.

On to `CCn1cc(-c2cc3c(cc2OC)ncc2c3n(-c3ccncc3)c(=O)n2C)cn1` [compound 62, 8-(1-Ethyl-1H-pyrazol-4-yl)-7-methoxy-3-methyl-1-pyridin-4-yl-1,3-dihydro-imidazo[4,5-c]quinolin-2-one], for which the IC50 in assay [1] is over 30 µM; in assay [2], under 0.01 µM; in assay [2] (10 μM ATP, substrate p53) it was under 0.01 µM; in assay [3] it was over 30 µM; in assay [4] it was over 30 µM; in assay [5], 1 to 2 µM. The IC50 in assay [6] and in assay [7] was over 30 µM throughout.
